Results taken from patent US20110054031A1, “Ophthalmic NSAIDS as Adjuvants” (ISTA Pharmaceuticals, Inc., priority 2008, published 2011).
pIC50: −log10 of the molar value.

Key:
COX-1 = COX-1 (Homo sapiens, UniProt P23219); details: cited from earlier work
COX-2 [1] = target: T1, COX-2 (Homo sapiens, UniProt P35354); details: cited from earlier work
T1 sequence (P35354 18-604): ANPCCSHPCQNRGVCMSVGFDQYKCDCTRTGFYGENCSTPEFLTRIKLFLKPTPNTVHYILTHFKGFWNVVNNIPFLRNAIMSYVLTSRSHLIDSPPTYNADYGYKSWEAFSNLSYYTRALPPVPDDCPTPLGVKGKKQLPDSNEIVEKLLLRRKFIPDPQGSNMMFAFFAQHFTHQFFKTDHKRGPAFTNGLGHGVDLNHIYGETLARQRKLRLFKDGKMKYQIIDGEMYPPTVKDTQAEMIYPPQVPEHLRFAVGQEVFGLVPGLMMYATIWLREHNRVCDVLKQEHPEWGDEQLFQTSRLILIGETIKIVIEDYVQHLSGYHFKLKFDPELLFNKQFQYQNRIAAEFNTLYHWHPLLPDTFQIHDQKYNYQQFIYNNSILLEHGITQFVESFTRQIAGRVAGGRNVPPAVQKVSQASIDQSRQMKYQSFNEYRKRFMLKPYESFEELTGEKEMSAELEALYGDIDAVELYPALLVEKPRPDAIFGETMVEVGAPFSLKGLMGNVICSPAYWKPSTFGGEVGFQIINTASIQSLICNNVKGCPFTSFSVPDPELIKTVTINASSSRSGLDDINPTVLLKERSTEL

COX-2 [2] = target: T1, COX-2; assay: COX-2 enzyme inhibition (Table 1, relative potency of ocular NSAIDs); format: biochemical; details: ratio of IC50 values
Source text: NSAIDs vary in their relative potency against COX-1 and COX-2. […] Several in vitro assays are used to determine IC50 values, making the values dependent upon the animal model (tissue and stimulus) used in the experiment and variable between laboratories. Thus, it is important that the assay type is defined when making comparisons between IC50 measurements.

[3] = cited from earlier work
prostaglandin synthesis = details: in vitro, relative to indomethacin; cited from earlier work
[4] = system: choroidal neovascularization (CNV); assay: Laser photocoagulation-induced choroidal neovascularization in mice; format: in vivo, C57BL/6J mice; details: 2 weeks of treatment after laser burn, versus saline, BF 0.1% topical 4 μL four times per day, sVEGFR-1/Fc 250 ng
Protocol: Methods: Six-week female C57BL/6J mice received laser burns with 514-argon laser at the posterior retina; 19 mice with successful burns were randomly assigned to 1 of 3 treatment groups: BF 0.1%, saline with or without 250 ng sVEGFR-1/Fc immediately after laser burn. Mice were treated with 4 μL of BF 0.1% or saline four times per day for 2 weeks. Then deeply anaesthetized mice were perfused with 50 mg/mL flourescein-labeled dextran, eyes were enucleated and fixed in buffered formalin. Flat mounts of the RPE-choroid-sclera were observed by fluorescence microscope. Total area of hyperfluorescent neovascualature was measured using image-analysis software

[5] = target: T2, COX-2 purified from rabbit alveolar macrophage (Oryctolagus cuniculus, UniProt O02768); details: cited from earlier work
T2 construct: from tissue; host or cells: rabbit alveolar macrophage
T2 sequence (O02768 18-604): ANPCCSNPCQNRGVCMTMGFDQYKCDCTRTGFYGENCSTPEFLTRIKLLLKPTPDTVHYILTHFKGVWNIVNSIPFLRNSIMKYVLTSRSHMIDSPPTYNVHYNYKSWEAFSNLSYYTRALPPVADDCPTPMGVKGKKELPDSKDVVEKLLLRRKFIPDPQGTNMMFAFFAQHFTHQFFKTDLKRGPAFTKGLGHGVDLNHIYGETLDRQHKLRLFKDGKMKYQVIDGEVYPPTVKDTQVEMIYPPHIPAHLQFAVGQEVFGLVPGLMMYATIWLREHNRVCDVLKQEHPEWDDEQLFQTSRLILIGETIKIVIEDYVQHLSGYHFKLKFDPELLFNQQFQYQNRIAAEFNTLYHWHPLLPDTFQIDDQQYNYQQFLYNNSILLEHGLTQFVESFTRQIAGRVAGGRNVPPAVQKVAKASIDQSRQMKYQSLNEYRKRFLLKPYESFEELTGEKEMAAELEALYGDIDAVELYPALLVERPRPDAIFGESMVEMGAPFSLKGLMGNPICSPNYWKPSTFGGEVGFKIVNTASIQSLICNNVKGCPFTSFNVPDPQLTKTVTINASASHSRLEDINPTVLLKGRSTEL

human recombinants COX-2 = target: T3, human recombinants COX-2 (Homo sapiens, UniProt P35354); details: relative to ketorolac; cited from earlier work
T3 sequence (P35354 18-604): T1 sequence (P35354 18-604)

[6] = eye drops; cited from earlier work

Sequence of COX-1 (P23219 24-599): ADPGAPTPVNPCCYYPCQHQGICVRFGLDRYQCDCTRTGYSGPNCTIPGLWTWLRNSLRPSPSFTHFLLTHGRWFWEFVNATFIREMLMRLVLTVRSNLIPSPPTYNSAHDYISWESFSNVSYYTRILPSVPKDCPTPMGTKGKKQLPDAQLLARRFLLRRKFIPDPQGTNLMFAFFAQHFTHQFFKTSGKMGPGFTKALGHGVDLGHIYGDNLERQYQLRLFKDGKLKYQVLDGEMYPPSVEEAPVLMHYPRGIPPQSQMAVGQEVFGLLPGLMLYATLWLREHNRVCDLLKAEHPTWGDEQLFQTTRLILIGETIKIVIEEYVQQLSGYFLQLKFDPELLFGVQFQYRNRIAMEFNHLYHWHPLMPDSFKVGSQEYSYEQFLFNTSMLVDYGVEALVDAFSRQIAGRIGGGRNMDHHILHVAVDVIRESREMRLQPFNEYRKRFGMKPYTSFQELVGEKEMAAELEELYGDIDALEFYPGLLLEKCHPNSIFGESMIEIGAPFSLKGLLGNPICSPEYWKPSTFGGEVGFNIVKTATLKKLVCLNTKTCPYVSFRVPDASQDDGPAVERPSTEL

Compound: NC(CO)(CO)CO.O=C(c1ccccc1)c1ccc2n1CCC2C(=O)O (racemic) [ketorolac, (±)-5-benzoyl-2,3-dihydro-1H pyrrolizine-1-carboxylic acid, 2-amino-2-(hydroxymethyl)-1,3-propanediol salt (1:1)]
- pIC50 (COX-1): 7.70
- pIC50 (COX-2 [1]): 6.92
- Ratio COX-1/COX-2 (COX-2 [2]): 0.167

Compound: Lucentis: recombinant humanized IgG1 kappa isotype monoclonal antibody fragment designed for intravitreal use
- rate of arterial thromboembolic events ([3]; Lucentis clinical trials): < 4%
- serious adverse reactions related to the intravitreal injection procedure ([3]; endophthalmitis, rhegmatogenous retinal detachments, iatrogenic traumatic cataracts): < 0.1 % of injections
- time after intravitreal injection at which increases in intraocular pressure were noted ([3]; human, in vivo): ≤ 60 min
- other serious ocular adverse reactions ([3]; intraocular inflammation and increased intraocular pressure): < 2 % of patients

Compound: NC(=O)Cc1cccc(C(=O)c2ccccc2)c1N [nepafenac, 2-amino-3-benzoyl-benzeneacetamide]
- pIC50 (COX-1): 6.60
- pIC50 (COX-2 [1]): 6.82
- Ratio COX-1/COX-2 (COX-2 [2]): 1.67

Compound: Nc1c(CC(=O)[O-])cccc1C(=O)c1ccc(Br)cc1.Nc1c(CC(=O)[O-])cccc1C(=O)c1ccc(Br)cc1.O.O.O.[Na+].[Na+] [bromfenac, sodium 2-amino-3-(4-bromobenzoyl)phenylacetate sesquihydrate]
- inhibition of prostaglandin synthesis, times greater than indomethacin (prostaglandin synthesis): approximately 12 times
- reduction of area of choroidal neovascularization (CNV lesions) [4]: 71%
- inhibitory effect on COX-2, times greater than amfenac ([5]; relative to amfenac): 6.5 times
- inhibitory effect on COX-2, times greater than diclofenac ([5]; relative to diclofenac): 3.7 times
- inhibitory effect on COX-2, times more potent than ketorolac (human recombinants COX-2): 18 times
- pIC50 (COX-2 [1]): 7.64
- stability in aqueous solution [6]: stable for a long period of time
